Experimental data from patent US9926281B2 (priority 2014, dated 2018).

Assays:
human TACE = human TACE (Homo sapiens (Human), UniProt P78536); conditions: read-out: TACE potency IC50
human ADAMTS-5 = human ADAMTS-5 (Homo sapiens (Human), UniProt Q9UNA0); conditions: read-out: hADAMTS-5 potency IC50
Sequence of human ADAMTS-5 (Q9UNA0 262-930): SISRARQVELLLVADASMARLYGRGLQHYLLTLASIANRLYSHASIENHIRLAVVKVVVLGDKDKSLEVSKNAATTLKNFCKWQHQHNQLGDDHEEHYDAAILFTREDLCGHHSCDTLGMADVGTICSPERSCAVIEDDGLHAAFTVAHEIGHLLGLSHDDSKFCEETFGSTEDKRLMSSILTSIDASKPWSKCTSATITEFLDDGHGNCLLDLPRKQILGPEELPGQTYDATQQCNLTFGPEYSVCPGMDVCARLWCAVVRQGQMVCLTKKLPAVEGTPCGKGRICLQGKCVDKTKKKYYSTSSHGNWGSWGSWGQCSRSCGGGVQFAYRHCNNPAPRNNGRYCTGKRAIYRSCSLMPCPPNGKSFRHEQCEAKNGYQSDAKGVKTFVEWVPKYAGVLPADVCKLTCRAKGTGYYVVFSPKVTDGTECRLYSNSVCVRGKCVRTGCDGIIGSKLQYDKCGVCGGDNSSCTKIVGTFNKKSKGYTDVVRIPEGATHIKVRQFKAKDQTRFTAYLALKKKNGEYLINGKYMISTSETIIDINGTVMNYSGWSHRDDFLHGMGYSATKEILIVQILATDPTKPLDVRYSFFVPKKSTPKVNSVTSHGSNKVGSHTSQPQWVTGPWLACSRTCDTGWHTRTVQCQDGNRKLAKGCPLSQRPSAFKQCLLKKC
Procedure: Finally, the fluorescence is read on the Envision (Perkin Elmer) after an incubation of 90 min at 37° C.

Sequence of human TACE (P78536 whole entry, looked up, change not shown): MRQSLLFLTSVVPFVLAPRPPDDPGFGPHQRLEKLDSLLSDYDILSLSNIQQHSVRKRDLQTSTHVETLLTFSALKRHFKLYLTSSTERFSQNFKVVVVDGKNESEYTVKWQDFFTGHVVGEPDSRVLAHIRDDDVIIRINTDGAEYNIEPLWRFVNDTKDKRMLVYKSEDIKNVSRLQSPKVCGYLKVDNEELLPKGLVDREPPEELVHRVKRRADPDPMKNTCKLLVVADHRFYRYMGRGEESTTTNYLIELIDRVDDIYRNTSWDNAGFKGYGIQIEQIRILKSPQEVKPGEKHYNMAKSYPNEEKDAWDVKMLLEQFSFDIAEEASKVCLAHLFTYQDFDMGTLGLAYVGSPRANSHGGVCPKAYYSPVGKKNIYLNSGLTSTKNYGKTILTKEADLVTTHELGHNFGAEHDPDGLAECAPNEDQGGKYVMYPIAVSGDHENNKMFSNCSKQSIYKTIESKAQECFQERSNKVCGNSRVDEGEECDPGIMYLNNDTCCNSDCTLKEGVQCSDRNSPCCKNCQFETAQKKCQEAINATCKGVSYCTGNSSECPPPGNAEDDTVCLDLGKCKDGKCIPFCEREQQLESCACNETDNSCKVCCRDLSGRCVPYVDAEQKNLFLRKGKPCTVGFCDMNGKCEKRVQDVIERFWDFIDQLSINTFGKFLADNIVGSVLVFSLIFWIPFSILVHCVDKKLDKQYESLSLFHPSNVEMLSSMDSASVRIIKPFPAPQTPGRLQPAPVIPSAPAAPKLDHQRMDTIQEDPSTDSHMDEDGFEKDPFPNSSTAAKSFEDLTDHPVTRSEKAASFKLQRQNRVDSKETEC

Compound: CC(CC1(CN2CCC(F)(F)C2)NC(=O)NC1=O)C(=O)N1CCN(c2cc(Cl)cc(Cl)c2)CC1 (stereo not shown) [compound 252, 5-[3-[4-(3,5-dichlorophenyl)piperazin-1-yl]-2-methyl-3-oxo-propyl]-5-[(3,3-difluoropyrrolidin-1-yl)methyl]imidazolidine-2,4-dione]
- IC50 (human TACE): 2690 nM
- IC50 (human ADAMTS-5): 67 nM

Compound: C[C@H]1CN(C(=O)CCC2(C3CC3)NC(=O)NC2=O)CCN1c1cccc2ccoc12 (stereo partly drawn) [compound 280, 5-[3-[(3S)-4-(benzofuran-7-yl)-3-methyl-piperazin-1-yl]-3-oxo-propyl]-5-cyclopropyl-imidazolidine-2,4-dione]
- IC50 (human TACE): > 20000 nM
- IC50 (human ADAMTS-5): 275 nM

Compound: C[C@H]1CN(C(=O)CCC2(C3CC3)NC(=O)NC2=O)CCN1c1cc(F)cc(-c2cn[nH]c2)c1 (stereo partly drawn) [compound 338, 5-cyclopropyl-5-[3-[(3S)-4-[3-fluoro-5-(1H-pyrazol-4-yl)phenyl]-3-methyl-piperazin-1-yl]-3-oxo-propyl]imidazolidine-2,4-dione]
- IC50 (human TACE): > 4000 nM
- IC50 (human ADAMTS-5): 60 nM

Compound: C[C@H]1CN(C(=O)CCC2(C3CC3)NC(=O)NC2=O)CCN1c1ccc2cnn(C)c2c1 (stereo partly drawn) [compound 341, 5-cyclopropyl-5-[3-[(3S)-3-methyl-4-(1-methylindazol-6-yl)piperazin-1-yl]-3-oxo-propyl]imidazolidine-2,4-dione]
- IC50 (human TACE): 885 nM
- IC50 (human ADAMTS-5): 264 nM

Compound: C[C@H]1CN(C(=O)CCC2(C3CC3)NC(=O)NC2=O)CCN1c1cccc(-c2cncc(Cl)c2)c1 (stereo partly drawn) [compound 322, 5-[3-[(3S)-4-[3-(5-chloro-3-pyridyl)phenyl]-3-methyl-piperazin-1-yl]-3-oxo-propyl]-5-cyclopropyl-imidazolidine-2,4-dione]
- IC50 (human TACE): > 4000 nM
- IC50 (human ADAMTS-5): 237 nM

Compound: C[C@H]1CN(C(=O)CCC2(C3CC3)NC(=O)NC2=O)CCN1c1cccc(-c2cnccn2)c1 (stereo partly drawn) [Cpd 372, S-Cyclopropyl-5-{3-[(S)-3-methyl-4-(3-pyrazin-2-yl-phenyl)-piperazin-1-yl]-3-oxo-propyl}-imidazolidine-2,4-dione]
- IC50 (human TACE): > 20000 nM
- IC50 (human ADAMTS-5): 2390 nM

Compound: CC1(CC(CC#N)C(=O)N2CCN(c3cc(Cl)cc(Cl)c3)CC2)NC(=O)NC1=O (stereo not shown) [compound 254, 4-[4-(3,5-dichlorophenyl)piperazin-1-yl]-3-[(4-methyl-2,5-dioxo-imidazolidin-4-yl)methyl]-4-oxo-butanenitrile]
- IC50 (human TACE): 1000 nM
- IC50 (human ADAMTS-5): 71 nM

Compound: C[C@H]1CN(C(=O)CCC2(C3CC3)NC(=O)NC2=O)CCN1c1ccn(C)n1 (stereo partly drawn) [compound 374, 5-cyclopropyl-5-[3-[(3S)-3-methyl-4-(1-methylpyrazol-3-yl)piperazin-1-yl]-3-oxo-propyl]imidazolidine-2,4-dione]
- IC50 (human TACE): > 20000 nM
- IC50 (human ADAMTS-5): 3080 nM

Compound: CCC1(CC(C)C(=O)N2CCN(c3cncc(F)c3)[C@@H](C)C2)NC(=O)NC1=O (stereo partly drawn) [compound 360, 5-ethyl-5-[3-[(3S)-4-(5-fluoro-3-pyridyl)-3-methyl-piperazin-1-yl]-2-methyl-3-oxo-propyl]imidazolidine-2,4-dione]
- IC50 (human TACE): > 20000 nM
- IC50 (human ADAMTS-5): 119 nM

Compound: C[C@H]1CN(C(=O)CCC2(C3CC3)NC(=O)NC2=O)CCN1c1cnnc(Cl)c1 (stereo partly drawn) [compound 373, 5-[3-[(3S)-4-(6-chloropyridazin-4-yl)-3-methyl-piperazin-1-yl]-3-oxo-propyl]-5-cyclopropyl-imidazolidine-2,4-dione]
- IC50 (human TACE): > 20000 nM
- IC50 (human ADAMTS-5): 1530 nM

Compound: Cc1ccc(-c2cccc(N3CCN(C(=O)CCC4(C5CC5)NC(=O)NC4=O)C[C@@H]3C)c2)cn1 (stereo partly drawn) [compound 324, 5-cyclopropyl-5-[3-[(3S)-3-methyl-4-[3-(6-methyl-3-pyridyl)phenyl]piperazin-1-yl]-3-oxo-propyl]imidazolidine-2,4-dione]
- IC50 (human TACE): > 4000 nM
- IC50 (human ADAMTS-5): 407 nM

Compound: Cc1cccc(C2(CCC(=O)N3CCN(c4ccc(Cl)c(F)c4)[C@@H](C)C3)NC(=O)NC2=O)n1 (stereo partly drawn) [compound 454, 5-[3-[(3S)-4-(4-chloro-3-fluoro-phenyl)-3-methyl-piperazin-1-yl]-3-oxo-propyl]-5-(6-methyl-2-pyridyl)imidazolidine-2,4-dione]
- IC50 (human TACE): 2980 nM
- IC50 (human ADAMTS-5): 35 nM

Compound: CC(CC1(C2CNC2)NC(=O)NC1=O)C(=O)N1CCN(c2ccc(F)c(F)c2)CC1 (stereo not shown) [compound 240, 5-(azetidin-3-yl)-5-[3-[4-(3,4-difluorophenyl)piperazin-1-yl]-2-methyl-3-oxo-propyl]imidazolidine-2,4-dione]
- IC50 (human TACE): > 20000 nM
- IC50 (human ADAMTS-5): 194 nM

Compound: C[C@H]1CN(C(=O)CCC2(c3cnccn3)NC(=O)NC2=O)CCN1c1cc(Cl)cc(Cl)c1 (stereo partly drawn) [compound 461, 5-[3-[(3S)-4-(3,5-dichlorophenyl)-3-methyl-piperazin-1-yl]-3-oxo-propyl]-5-pyrazin-2-yl-imidazolidine-2,4-dione]
- IC50 (human TACE): 2540 nM
- IC50 (human ADAMTS-5): 39 nM

Compound: C[C@H]1CN(C(=O)CCC2(C3CC3)NC(=O)NC2=O)CCN1c1cccc(-c2ccnn2C)c1 (stereo partly drawn) [compound 368, 5-cyclopropyl-5-[3-[(3S)-3-methyl-4-[3-(2-methylpyrazol-3-yl)phenyl]piperazin-1-yl]-3-oxo-propyl]imidazolidine-2,4-dione]
- IC50 (human TACE): > 20000 nM
- IC50 (human ADAMTS-5): 257 nM

Compound: COc1cccc(C2(CCC(=O)N3CCN(c4cc(F)cc(F)c4)[C@@H](C)C3)NC(=O)NC2=O)n1 (stereo partly drawn) [compound 336, 5-[3-[(3S)-4-(3,5-difluorophenyl)-3-methyl-piperazin-1-yl]-3-oxo-propyl]-5-(6-methoxy-2-pyridyl)imidazolidine-2,4-dione]
- IC50 (human TACE): > 4000 nM
- IC50 (human ADAMTS-5): 74 nM

Compound: Cc1nc(N2CCN(C(=O)CCC3(C4CC4)NC(=O)NC3=O)C[C@@H]2C)no1 (stereo partly drawn) [compound 344, 5-cyclopropyl-5-[3-[(3S)-3-methyl-4-(5-methyl-1,2,4-oxadiazol-3-yl)piperazin-1-yl]-3-oxo-propyl]imidazolidine-2,4-dione]
- IC50 (human TACE): > 20000 nM
- IC50 (human ADAMTS-5): > 20000 nM

Compound: C[C@H]1CN(C(=O)CCC2(c3ncccn3)NC(=O)NC2=O)CCN1c1ccc(Cl)c(Cl)c1 (stereo partly drawn) [compound 462, 5-[3-[(3S)-4-(3,4-dichlorophenyl)-3-methyl-piperazin-1-yl]-3-oxo-propyl]-5-pyrimidin-2-yl-imidazolidine-2,4-dione]
- IC50 (human TACE): > 4000 nM
- IC50 (human ADAMTS-5): 22 nM

Compound: C[C@H]1CN(C(=O)CCC2(C3CC3)NC(=O)NC2=O)CCN1c1cccc(-c2cnn(C)c2)c1 (stereo partly drawn) [compound 283, 5-cyclopropyl-5-[3-[(3S)-3-methyl-4-[3-(1-methylpyrazol-4-yl)phenyl]piperazin-1-yl]-3-oxo-propyl]imidazolidine-2,4-dione]
- IC50 (human TACE): > 20000 nM
- IC50 (human ADAMTS-5): 1080 nM

Compound: C[C@H]1CN(C(=O)CCC2(C3CC3)NC(=O)NC2=O)CCN1c1cncc(C#N)c1 (stereo partly drawn) [compound 330, 5-[(2S)-4-[3-(4-cyclopropyl-2,5-dioxo-imidazolidin-4-yl)propanoyl]-2-methyl-piperazin-1-yl]pyridine-3-carbonitrile]
- IC50 (human TACE): > 20000 nM
- IC50 (human ADAMTS-5): > 4000 nM

Compound: Cc1ccc(N2CCN(C(=O)CCC3(C4CC4)NC(=O)NC3=O)C[C@@H]2C)cc1F (stereo partly drawn) [compound 299, 5-cyclopropyl-5-[3-[(3S)-4-(3-fluoro-4-methyl-phenyl)-3-methyl-piperazin-1-yl]-3-oxo-propyl]imidazolidine-2,4-dione]
- IC50 (human TACE): > 20000 nM
- IC50 (human ADAMTS-5): 114 nM

Compound: COC[C@]1(C[C@H](C)C(=O)N2CCN(c3cccc(-c4cn[nH]c4)c3)[C@@H](C)C2)NC(=O)NC1=O [compound 380, 5-(methoxymethyl)-5-[2-methyl-3-[(3S)-3-methyl-4-[3-(1H-pyrazol-4-yl)phenyl]piperazin-1-yl]-3-oxo-propyl]imidazolidine-2,4-dione]
- IC50 (human TACE): > 4000 nM
- IC50 (human ADAMTS-5): 47 nM

Compound: Cc1ncccc1-c1cccc(N2CCN(C(=O)CCC3(C4CC4)NC(=O)NC3=O)C[C@@H]2C)c1 (stereo partly drawn) [compound 323, 5-cyclopropyl-5-[3-[(3S)-3-methyl-4-[3-(2-methyl-3-pyridyl)phenyl]piperazin-1-yl]-3-oxo-propyl]imidazolidine-2,4-dione]
- IC50 (human TACE): > 4000 nM
- IC50 (human ADAMTS-5): 1240 nM

Compound: Cc1noc(C)c1-c1cccc(N2CCN(C(=O)CCC3(C4CC4)NC(=O)NC3=O)C[C@@H]2C)c1 (stereo partly drawn) [compound 369, 5-cyclopropyl-5-[3-[(3S)-4-[3-(3,5-dimethylisoxazol-4-yl)phenyl]-3-methyl-piperazin-1-yl]-3-oxo-propyl]imidazolidine-2,4-dione]
- IC50 (human TACE): > 20000 nM
- IC50 (human ADAMTS-5): 1080 nM

Compound: C[C@H]1CN(C(=O)CCC2(c3cccnc3)NC(=O)NC2=O)CCN1c1ccc(Cl)c(F)c1 (stereo partly drawn) [compound 315, 5-[3-[(3S)-4-(4-chloro-3-fluoro-phenyl)-3-methyl-piperazin-1-yl]-3-oxo-propyl]-5-(3-pyridyl)imidazolidine-2,4-dione]
- IC50 (human TACE): > 4000 nM
- IC50 (human ADAMTS-5): 42 nM

Compound: C[C@H]1CN(C(=O)CCC2(c3ccccn3)NC(=O)NC2=O)CCN1c1cc(Cl)cc(Cl)c1 (stereo partly drawn) [compound 459, 5-[3-[(3S)-4-(3,5-dichlorophenyl)-3-methyl-piperazin-1-yl]-3-oxo-propyl]-5-(2-pyridyl)imidazolidine-2,4-dione]
- IC50 (human TACE): 1740 nM
- IC50 (human ADAMTS-5): 46 nM

Compound: Cc1cc(N2CCN(C(=O)C(C)CC3(C4CC4)NC(=O)NC3=O)C[C@@H]2C)ccc1F (stereo partly drawn) [compound 456, 5-cyclopropyl-5-(3-((S)-4-(4-fluoro-3-methylphenyl)-3-methylpiperazin-1-yl)-2-methyl-3-oxopropyl)imidazolidine-2,4-dione]
- IC50 (human TACE): > 4000 nM
- IC50 (human ADAMTS-5): 27 nM

Compound: Cc1cc(N2CCN(C(=O)CC[C@@]3(C)NC(=O)NC3=O)C[C@@H]2C)cc(C)c1Cl [compound 470, (5R)-5-[3-[(3S)-4-(4-chloro-3,5-dimethyl-phenyl)-3-methyl-piperazin-1-yl]-3-oxo-propyl]-5-methyl-imidazolidine-2,4-dione]
- IC50 (human TACE): 2930 nM
- IC50 (human ADAMTS-5): 383 nM

Compound: CC(CC1(CN2CCOCC2)NC(=O)NC1=O)C(=O)N1CCN(c2cc(Cl)cc(Cl)c2)[C@@H](C)C1 (stereo partly drawn) [compound 246, 5-[3-[(3S)-4-(3,5-dichlorophenyl)-3-methyl-piperazin-1-yl]-2-methyl-3-oxo-propyl]-5-(morpholinomethyl)imidazolidine-2,4-dione]
- IC50 (human TACE): > 19500 nM
- IC50 (human ADAMTS-5): 114 nM
